Assays:
[1] = target: T1, PKC theta (Homo sapiens, UniProt Q04759); experiment: PKC assay, fluorescence polarization (Example 2), PKC theta; type: biochemical; settings: 5 μM ATP
T1 construct: purchased Upstate Biotechnologies, Temecula, CA 14-444
Procedure: The inhibition of PKC activity was measured by monitoring the production of phosphorylated peptide by fluorescence polarization at different concentrations of the inhibitor. Reactions were carried out in 96-well plate format with a total volume of 20 μL containing 20 mM HEPES, pH 7.4, 5 mM MgCl2, 0.2 mM CaCl2, 1 mM DTT, 0.02% Brij-35, 0.1 mg/mL phosphatidylserine, 0.02 mg/mL dioleoyl-sn-glycerol and 5 μM each of ATP and the peptide substrate. Compounds were first diluted serially in DMSO and then transferred to a solution containing the above concentrations of HEPES, MgCl2, CaCl2, DTT, and Brij-35 to yield 5× compound solutions in 2% DMSO, which was then added to the reaction solution. Reactions were initiated by the addition of PKC at a typical concentration as described in Table VI, and then allowed to incubate at room temperature for 20 min. At the end of this time, a combination of quench (EDTA) and detection (peptide tracer and antibody) reagents was added using the protocol of Invitrogen P2748.

[2] = tested on: Human primary T cells; experiment: IL-2 ELISA, Human Primary T Cell, Anti-CD3+CD28+ (Example 3); type: cell-based; settings: anti-CD3+CD28 stimulation
Summary of the method: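 Human primary T cells, 100,000 per well, were pre-incubated with compound in Yssel's medium for 1 h at 37 °C. The counter-assay used 0.5 ng/ml PMA with 0.1 uM ionomycin final.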

T1 sequence (Q04759 whole entry): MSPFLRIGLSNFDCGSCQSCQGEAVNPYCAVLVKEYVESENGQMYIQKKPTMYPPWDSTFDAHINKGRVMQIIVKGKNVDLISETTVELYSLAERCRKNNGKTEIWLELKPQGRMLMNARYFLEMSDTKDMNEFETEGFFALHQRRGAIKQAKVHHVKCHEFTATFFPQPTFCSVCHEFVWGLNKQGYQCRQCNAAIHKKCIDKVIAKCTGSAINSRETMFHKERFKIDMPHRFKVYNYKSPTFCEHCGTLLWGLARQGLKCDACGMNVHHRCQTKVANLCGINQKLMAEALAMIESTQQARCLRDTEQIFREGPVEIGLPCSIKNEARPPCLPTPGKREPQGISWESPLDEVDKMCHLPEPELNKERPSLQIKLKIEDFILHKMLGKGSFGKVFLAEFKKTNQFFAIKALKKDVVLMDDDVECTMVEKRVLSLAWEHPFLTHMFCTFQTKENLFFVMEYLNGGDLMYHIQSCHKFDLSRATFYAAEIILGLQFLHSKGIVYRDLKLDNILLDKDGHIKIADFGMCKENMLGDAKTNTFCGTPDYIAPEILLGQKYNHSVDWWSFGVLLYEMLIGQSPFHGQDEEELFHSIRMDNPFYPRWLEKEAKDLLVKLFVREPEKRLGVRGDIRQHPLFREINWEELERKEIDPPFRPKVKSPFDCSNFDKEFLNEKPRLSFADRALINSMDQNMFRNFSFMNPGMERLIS

Structure (SMILES)	IC50 [1]	IC50 ([2]; Homo sapiens, T-cell, 24 h)	IC50 ([2]; 24 hours)
CN1C(C)(C)CC(Nc2nc(Nc3cccc(-c4cc5ccccc5s4)c3)ncc2F)CC1(C)C [Compound I-106]	239 nM	527 nM	–
CN1C(C)(C)CC(Nc2nc(Nc3cccc(-c4cnco4)c3)ncc2F)CC1(C)C [Compound I-100]	34.4 nM	494 nM	–
CN1C(C)(C)CC(Nc2nc(Nc3cccc(C#N)c3)ncc2F)CC1(C)C [Compound I-26]	3 nM	59 nM	–
CN1C(C)(C)CC(Nc2nc(Nc3ccc(-c4cccnc4)c(Cl)c3)ncc2F)CC1(C)C [Compound I-154]	3.81 nM	261 nM	–
CN1CCN(c2cccc(Nc3ncc(F)c(NC4CC(C)(C)N(C)C(C)(C)C4)n3)c2)CC1 [Compound I-2]	407 nM	1570 nM	–
CN1C(C)(C)CC(Nc2nc(Nc3ccc(C#N)c(Cl)c3)ncc2F)CC1(C)C [Compound I-22]	21 nM	177 nM	–
COc1ccc(Nc2ncc(F)c(NC3CC(C)(C)N(C)C(C)(C)C3)n2)cc1Br [Compound I-159]	7.29 nM	296 nM	–
CN1C(C)(C)CC(Nc2nc(Nc3ccc(S(N)(=O)=O)cc3)ncc2F)CC1(C)C [Compound I-9]	86 nM	3440 nM	–
CN1C(C)(C)CC(Nc2nc(Nc3ccc(N4CCN(S(C)(=O)=O)CC4)c(C(F)(F)F)c3)ncc2C#N)CC1(C)C [Compound I-95]	43 nM	347 nM	–
CN1C(C)(C)CC(Nc2nc(Nc3ccc(-c4ccncc4)cc3)ncc2F)CC1(C)C [Compound I-123]	80.8 nM	872 nM	–
CN1C(C)(C)CC(Nc2nc(Nc3ccc(Br)c(C(F)(F)F)c3)ncc2F)CC1(C)C [Compound I-109]	107 nM	345 nM	–
CN1CCN(c2ccc(Nc3ncc(F)c(NC4CC(C)(C)N(C)C(C)(C)C4)n3)cc2F)CC1 [Compound I-39]	15 nM	937 nM	–
CN1C(C)(C)CC(Nc2nc(Nc3cc(C(F)(F)F)cc(C(F)(F)F)c3)ncc2F)CC1(C)C [Compound I-146]	123 nM	252 nM	–
CN1C(C)(C)CC(Nc2nc(Nc3ccc(Br)c(Cl)c3)ncc2F)CC1(C)C [Compound I-153]	10.2 nM	209 nM	–
CN1C(C)(C)CC(Nc2nc(Nc3ccc(F)c(Br)c3)ncc2F)CC1(C)C [Compound I-158]	20.6 nM	489 nM	–
CN1C(C)(C)CC(Nc2nc(Nc3ccc(-c4cccnc4)cc3)ncc2F)CC1(C)C [Compound I-124]	55.7 nM	540 nM	–

The remaining lines, values ahead:

IC50 [1]	IC50 ([2]; Homo sapiens, T-cell, 24 h)	IC50 ([2]; 24 hours)	Structure (SMILES)
2.41 nM	–	121 nM	CN1CCN(c2ccc(Nc3ncc(F)c(NC4CC(C)(C)N(C)C(C)(C)C4)n3)cc2OC(F)F)CC1 [Compound I-236]
31.8 nM	188 nM	–	CN1C(C)(C)CC(Nc2nc(Nc3ccc(NC(=O)c4ccco4)c(Cl)c3)ncc2F)CC1(C)C [Compound I-339]
10.1 nM	720 nM	–	CCN1C(=O)C(C)(C)Oc2cc(Nc3ncc(OC)c(NC4CC(C)(C)N(C)C(C)(C)C4)n3)ccc21 [II-130]
10.7 nM	270 nM	–	CN1C(C)(C)CC(Nc2nc(Nc3ccc(N4CCN(S(=O)(=O)C5CC5)CC4)c(Cl)c3)ncc2F)CC1(C)C [Compound I-174]
3.8 nM	290 nM	–	CN1C(C)(C)CC(Nc2nc(Nc3ccc(Cl)c(C#N)c3)ncc2F)CC1(C)C [Compound I-163]
255 nM	1560 nM	–	N#Cc1cccc(Nc2ncc(F)c(NC3CCN(CCO)CC3)n2)c1 [III-6, N2-(3-Cyano)phenyl-5-fluoro-N4-[1-(2-hydroxyethyl)piperidin-4-yl]-2,4-pyrimidinediamine]
92 nM	427 nM	–	CN1C(C)(C)CC(Nc2nc(Nc3cc(-c4ccoc4)cc(C(F)(F)F)c3)ncc2F)CC1(C)C [Compound I-203]
53.2 nM	476 nM	–	Cc1ccc2cc(Nc3ncc(F)c(NC4CC(C)(C)N(C)C(C)(C)C4)n3)ccc2n1 [II-7]
379 nM	384 nM	–	CC(=O)N1C(C)CN(c2cc(Nc3ncc(F)c(NC4CC(C)(C)N(C)C(C)(C)C4)n3)ccc2Cl)CC1C (stereo not drawn) [Compound I-251]
3.94 nM	115 nM	–	CN1C(C)(C)CC(Nc2nc(Nc3ccc(N4CCN(S(C)(=O)=O)CC4)c(OC(F)F)c3)ncc2F)CC1(C)C [Compound I-238]
7.11 nM	205 nM	–	CN1C(C)(C)CC(Nc2nc(Nc3ccc(N4CCN(S(C)(=O)=O)CC4)c(C#N)c3)ncc2Cl)CC1(C)C [Compound I-175]
